Like-named read-outs stand apart in the source and are kept apart here.
Columns and labels:
[1] = test system: Reconstructed human epidermis (RHE) tissues; assay: RT-qPCR gene expression of K10, K19, filaggrin, K4 and K13 in reconstructed human epidermis (RHE) cultures; type: cell-based; settings: 72 h, 2.83 mM in OD/10% DMSO, 6 μl
Experimental: Reconstructed human epidermis (RHE) tissues were cultured in-house as previously described by Poumay et al. Briefly, polycarbonate culture inserts (12 mm diameter and 0.4 μm pore size, Millipore) were filled with 150 μL of a suspension containing approximately 5×10^5 primary adult human keratinocytes. The inserts received another 500 μL of keratinocyte culture media and were placed in a 6-well plate (1 insert/well) containing 2.5 mL of RHE Growth Media (Epilife media +1.5 mM CaCl2). RHE cultures were incubated at 37° C. in a humidified atmosphere containing 5% CO2, for 24 hours. Subsequently (on Day 0), RHE cultures were exposed to the air-liquid interface by removing the RHE Growth Media from the top of the cultures, and replacing with 1.5 mL/well of RHE Growth Media containing 50 μg/mL vitamin C. Media was changed every other day until the cultures were dosed with Test Articles. A stock solution of 0.1% tazarotene (2.83 mM at 99.5% purity) in OD/10% DMSO was prepared. For tazarotene benzoate, hydroxytazarotenic acid, keto tazarotenic acid, keto tazarotene, and tazarotene nicotinate, a 10 mg/mL stock solution (in DMSO) was already prepared. From this stock solution, a 2.83 mM working solution (in octyldodecanol) was prepared. All other tested compounds were resuspended in DMSO and OD to obtain a final concentration of 2.83 mM in OD/10% DMSO. On Day 12, the cultures were placed in 60 mm petri dishes containing 3 mL of RHE Growth Media (+VitC). Test articles (6 μl) were applied to triplicate cultures and cultures were incubated at 37° C. for 72 hours. Untreated and OD alone served as negative controls. At the end of the incubation period, the growth media was collected and stored at −20° C. The tissues were cut in half: one half was placed in 10% NBF for histology, and the other half was placed in RNAlater™ solution for RT-qPCR. RNA was isolated and concentrations were determined using a NanoDrop spectrophotometer. In addition to using the same amount of RNA for each sample, data was normalized to internal GAPDH mRNA levels and is expressed as relative quantification (RQ) to untreated controls. RNA extracts from each replicate were amplified using RT-qPCR. The relative gene expression of five biomarkers was determined: Keratin 10, Keratin 19, Filaggrin, Keratin 4, and Keratin 13.

[2] = Metabolism in the presence of human skin microsomes; settings: human skin microsomes; paraoxon 0, 10 or 100 μM
Experimental: Hepatic microsomal reactions were carried out in microcentrifuge tubes in the following manner. Human liver microsomes (0.5 or 1.0 mg/ml protein), Test Article (1 or 10 μM), paraoxon (0, 10 or 100 μM), NADPH regenerating system (10 mM glucose-6-phosphate, 1 unit/ml glucose-6-phosphate dehydrogenase, 1 mM NADP^+), magnesium chloride (5 mM) in 0.1 M potassium phosphate buffer, pH 7.4 were incubated at 37° C. in a shaking water bath. Reactions were initiated with the addition of substrate with the exception of the zero-time incubations. The total reaction volume was 0.2 ml. The reactions were incubated for 15, 30, 45 or 60 minutes, terminated with 0.2 ml ice-cold acetonitrile and then placed on ice. For zero-time incubations, ice cold acetonitrile was added to the mixture containing microsomes, along with NADPH regenerating system, magnesium chloride in phosphate buffer and the Test Article. Each time point was carried out in triplicate.
Five time points were chosen, but because of the limitation of human skin microsome supply, each one was carried out in duplicate. Skin microsomal reactions were carried out as described above for hepatic microsomal reactions with the following two exceptions. Firstly, the total reaction volume was 0.1 mL. Secondly, incubations were terminated with 0.1 mL acetonitrile.

[3] = read-out: K4 Fold Change vs Untreated/OD controls (upregulation)
[4] = read-out: K13 Fold Change vs Untreated/OD controls (upregulation)
[5] = read-out: K19 Fold Change vs Untreated/OD controls (upregulation)
[6] = human liver microsomes, paraoxon 0, 10 or 100 μM

Compound | fold induction at 2830 µM [1, 3] | fold induction at 2830 µM [1, 4] | fold induction at 2830 µM [1, 5] | also measured
CCOC(=O)c1ccc(C#Cc2ccc3c(c2)C(C)(C)CC(OC(=O)c2ccccc2O)S3)nc1 (stereo not drawn) [Compound 25, Ethyl 6-[(2-salicylicyl-4,4-dimethyl-3,4-dihydro-2-thiochromen-6-yl)ethynyl]pyridine-3-carboxylate] | 103 to 180 | 17 | 23 | 
CCOC(=O)c1ccc(C#Cc2ccc3c(c2)C(C)(C)CC(OC(=O)CO)S3)nc1 (stereo not drawn) [Compound 15, 6-[2-(2-Hydroxy-acetoxy)-4,4-dimethyl-thiochroman-6-ylethynyl]-nicotinic acid ethyl ester] | 64 | 12 | 33 to 43 | 
CCOC(=O)c1ccc(C#Cc2ccc3c(c2)C(C)(C)C[C@@H](OC(=O)c2cccnc2)S3)nc1 [Compound 8, (S)-6-[4,4-dimethyl-2-(pyridine-3-carbonyloxy)thiochroman-6-ylethynyl]nicotinic acid ethyl ester] | 35 | 7 | 18 | 
CCOC(=O)c1ccc(C#Cc2ccc3c(c2)C(C)(C)CC(OC(=O)[C@@H](N)C(C)C)S3)nc1 (stereo partly drawn) [Compound 29, 6-[2-((S)-2-Amino-3-methyl-butyryloxy)-4,4-dimethyl-thiochroman-6-ylethynyl]-nicotinic acid ethyl ester] | 71 | 13 | 29 | 
CCCC(=O)OC1CC(C)(C)c2cc(C#Cc3ccc(C(=O)OCC)cn3)ccc2S1 (stereo not drawn) [Compound 18, Ethyl 6-[(2-n-butyryloxyl-4,4-dimethyl-3,4-dihydro-2-thiochromen-6-yl)ethynyl]pyridine-3-carboxylate] | 60 | 9 | 22 | 
CCOC(=O)c1ccc(C#Cc2ccc3c(c2)C(C)(C)CC(OC(=O)C2CCN(C)CC2)S3)nc1 (stereo not drawn) [Compound 23] | 73 | 19 | 33 to 43 | 
CCCCCCCCCCCC(=O)OC1CC(C)(C)c2cc(C#Cc3ccc(C(=O)OCC)cn3)ccc2S1 (stereo not drawn) [Compound 19] | 19 | 2 | 2 | 
CCOC(=O)c1ccc(C#Cc2ccc3c(c2)C(C)(C)CC(=O)S3)nc1 [Compound 12, ethyl 6-((4,4-dimethyl-2-oxothiochroman-6-yl)ethynyl)nicotinate] | 103 to 180 | 15 | 27 | 
CCOC(=O)c1ccc(C#Cc2ccc3c(c2)C(C)(C)CC(OC(C)=O)S3)nc1 (stereo not drawn) [Compound 17] | 103 to 180 | 15 | 24 | 
CCOc1ccc2ccc(=O)oc2c1 [7-ethoxycoumarin] |  |  |  | metabolized by human liver microsomes (positive control) (initial concentration 10 μM, 0 or 30 minutes): as expected
CCOC(=O)c1ccc(C#Cc2ccc3c(c2)C(C)(C)C[C@H](OC(=O)c2cccnc2)S3)nc1 [Compound 9, (R)-6-[4,4-dimethyl-2-(pyridine-3-carbonyloxy)thiochroman-6-ylethynyl]nicotinic acid ethyl ester] | 32 | 5 | 17 | 
CCCCCCCCCCCCCCCC(=O)OC1CC(C)(C)c2cc(C#Cc3ccc(C(=O)OCC)cn3)ccc2S1 (stereo not drawn) [Compound 13] | 38 | 6 | 4 | 
CCOC(=O)c1ccc(C#Cc2ccc3c(c2)C(C)(C)CC(OC(=O)CCCCCCCC(=O)OC)S3)nc1 (stereo not drawn) [Compound 28] | 103 to 180 | 18 | 30 | 
CCOC(=O)c1ccc(C#Cc2ccc3c(c2)C(C)(C)C[C@@H](OC(=O)c2ccccc2)S3)nc1 [Compound 5, (S)-6-(2-(2-benzoyloxy-4,4-dimethylthiochroman-6-yl)ethynyl) nicotinic acid, ethyl ester] | 45 | 7 | 8 | 
CCOC(=O)c1ccc(C#Cc2ccc3c(c2)C(C)(C)CC(OC(=O)C2CCOCC2)S3)nc1 (stereo not drawn) [Compound 26] | 90 | 10 | 20 | 
CC/C=C\C/C=C\C/C=C\CCCCCCC(=O)OC1CC(C)(C)c2cc(C#Cc3ccc(C(=O)OCC)cn3)ccc2S1 (stereo not drawn) [Compound 22] | 38 | 10 | 12 | 
CC1(C)CC(=O)Sc2ccc(C#Cc3ccc(C(=O)O)cn3)cc21 [Compound 11, 6-((4,4-dimethyl-2-oxothiochroman-6-yl)ethynyl)nicotinic acid] | 52 | 20 | 21 | 
CCOC(=O)c1ccc(C#Cc2ccc3c(c2)C(C)(C)CC(O)S3)nc1 (stereo not drawn) [Compound 14, Ethyl 6-[(2-hydroxy-4,4-dimethyl-3,4-dihydro-2-thiochromen-6-yl)ethynyl]pyridine-3-carboxylate] | 87 | 20 | 29 | 
CCOC(=O)c1ccc(C#Cc2ccc3c(c2)C(C)(C)CC(OC(=O)COC)S3)nc1 (stereo not drawn) [Compound 16] | 69 | 9 | 20 | 
CCOC(=O)c1ccc(C#Cc2ccc3c(c2)C(C)(C)CC(OC(=O)C(C)C)S3)nc1 (stereo not drawn) [Compound 20, Ethyl 6-[(2-isobutyryloxy-4,4-dimethyl-3,4-dihydro-2-thiochromen-6-yl)ethynyl]pyridine-3-carboxylate] | 22 | 6 | 15 | 
CCOC(=O)c1ccc(C#Cc2ccc3c(c2)C(C)(C)CC(OC(=O)CC)S3)nc1 (stereo not drawn) [Compound 24] | 74 | 23 | 33 to 43 | 
CCOC(=O)c1ccc(C#Cc2ccc3c(c2)C(C)(C)CC(OC(=O)CCCCC(=O)OC)S3)nc1 (stereo not drawn) [Compound 27, Ethyl 6-[(2-monomethyladopyl-4,4-dimethyl-3,4-dihydro-2-thiochromen-6-yl)ethynyl]pyridine-3-carboxylate] | 70 | 19 | 33 to 43 | 
CCOP(=O)(OCC)Oc1ccc([N+](=O)[O-])cc1 [Paraoxon] |  |  |  | inhibition of the metabolism of tazarotenic acid to tazarotenic acid sulfoxide (CYP- and FMO-mediated reaction): did not inhibit; inhibition of tazarotene benzoate metabolism to hydroxy tazarotenic acid [6]: inhibited; inhibition of tazarotene metabolism to tazarotenic acid [6]: inhibited; inhibition of tazarotene sulfoxide metabolism to tazarotenic acid sulfoxide [6]: inhibited; inhibition of tazarotene benzoate metabolism to hydroxy tazarotenic acid [2]: inhibited
CCOC(=O)c1ccc(C#Cc2ccc3c(c2)C(C)(C)C[C@H](OC(=O)c2ccccc2)S3)nc1 [Compound 6, (R)-6-(2-(2-benzoyloxy-4,4-dimethylthiochroman-6-yl)ethynyl)nicotinic acid, ethyl ester] | 20 | 7 | 8 | 
CC1(C)CC(O)Sc2ccc(C#Cc3ccc(C(=O)O)cn3)cc21 (stereo not drawn) [Compound 10, 6-((2-hydroxy-4,4-dimethylthiochroman-6-yl)ethynyl)nicotinic acid] | 65 | 11 | 25 | 

— patent US9062037B2, “Tazarotene derivatives” (Stiefel Laboratories, Inc., priority 2009, dated 2015)
